Test results: patent publication US20240158446A1, “CYCLIC COMPOUND HAVING SELECTIVE INHIBITORY ACTION ON KRAS OVER HRAS AND NRAS” (CHUGAI SEIYAKU KABUSHIKI KAISHA, priority 2021, published 2024)
pIC50, pKd: −log10 of the molar value. Read-outs that look alike come from different tables or passages of the source. Values belong to the compound of their own block, whether it stands above or below them. Where a SMILES comes first, the peptide text is derived from it. Bridges are numbered along the chain shown (N, C = ends). [ ]: non-standard residue; d: D form. The star is where a group is joined. hPhe(3,5-F2-4-CF3) = N[C@@H](CCc1cc(F)c(C(F)(F)F)c(F)c1)C(=O)O; NPrPhe(4-CF3) = CCCN[C@@H](Cc1ccc(C(F)(F)F)cc1)C(=O)O; NMeGly(cPent) = CN[C@H](C(=O)O)C1CCCC1; NMeD = CN[C@@H](CC(=O)O)C(=O)O; NMeL = CN[C@@H](CC(C)C)C(=O)O; αMeS = C[C@](N)(CO)C(=O)O; Morpholide = C1CN(*)CCO1; Sar = CNCC(=O)O

Assays:
[1] = system: human lung cancer strain NCI-H441;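 also: cell proliferation inhibition after four days measured by CellTiter-Glo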
[2] = molecular target: GDP-bound HRAS wild-type protein (Homo sapiens, UniProt P01112); experiment: Binding to HRAS by surface plasmon resonance (SPR), Single Cycle Kinetics
Sequence of GDP-bound HRAS wild-type protein (P01112 whole entry): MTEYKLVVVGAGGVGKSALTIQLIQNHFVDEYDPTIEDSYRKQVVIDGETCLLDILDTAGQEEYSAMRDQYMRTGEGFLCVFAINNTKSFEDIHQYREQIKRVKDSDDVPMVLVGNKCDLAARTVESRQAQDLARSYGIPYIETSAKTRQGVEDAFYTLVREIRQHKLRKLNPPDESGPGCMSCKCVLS

[3] = molecular target: GDP-bound KRAS wild-type protein (Homo sapiens, UniProt P01116); experiment: Binding to KRAS by surface plasmon resonance (SPR), Single Cycle Kinetics; details: GDP-bound KRAS wild-type protein, read-out: KRAS KD
Sequence of GDP-bound KRAS wild-type protein (P01116 whole entry): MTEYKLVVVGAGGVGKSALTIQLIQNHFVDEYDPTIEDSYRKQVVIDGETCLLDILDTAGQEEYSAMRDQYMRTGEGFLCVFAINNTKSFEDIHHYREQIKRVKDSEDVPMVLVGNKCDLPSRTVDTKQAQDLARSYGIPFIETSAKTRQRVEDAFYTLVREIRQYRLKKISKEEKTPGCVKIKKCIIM

[4] = molecular target: GDP-bound NRAS wild-type protein (Homo sapiens, UniProt P01111); experiment: Binding to NRAS by surface plasmon resonance (SPR), Single Cycle Kinetics
Sequence of GDP-bound NRAS wild-type protein (P01111 whole entry): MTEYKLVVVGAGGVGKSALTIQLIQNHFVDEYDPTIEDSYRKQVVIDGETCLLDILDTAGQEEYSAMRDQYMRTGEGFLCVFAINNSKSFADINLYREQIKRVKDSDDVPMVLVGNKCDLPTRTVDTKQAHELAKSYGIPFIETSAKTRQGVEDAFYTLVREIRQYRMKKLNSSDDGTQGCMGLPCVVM

[5] = SPR, GDP-bound HRAS wild-type protein vs GDP-bound KRAS wild-type protein, KD ratio class
[6] = SPR, Single Cycle Kinetics, 1:1 binding model
[7] = SPR, GDP-bound NRAS wild-type protein vs GDP-bound KRAS wild-type protein, KD ratio class
[8] = SPR Single Cycle Kinetics, 1:1 binding model
[9] = SPR, GDP-bound HRAS wild-type protein vs GDP-bound KRAS wild-type protein
[10] = SPR, GDP-bound NRAS wild-type protein vs GDP-bound KRAS wild-type protein

- pIC50 [1]: 6.33
- pKd [3, 6]: 9.00
Compound: CCO[C@@H]1C[C@H]2C(=O)NC3(CCC3)C(=O)N(C)[C@@H](C3CCCC3)C(=O)N(C)[C@H](C(=O)N(C)C)CC(=O)N(C)[C@@H](CC(C)C)C(=O)N[C@@H]([C@@H](C)CC)C(=O)N(C)CC(=O)N(C)[C@H]3C/C=C\CCN(C3=O)[C@@H](Cc3ccc(F)cc3)C(=O)N(C)CC(=O)N[C@@H](CCc3ccc4sccc4c3)C(=O)N2C1 [PP1427]
- HRAS/KRAS (ratio of KD value for HRAS to KD value for KRAS) [2, 5]: B (a compound having 3 or more and less than 10 is denoted as B)
- NRAS/KRAS (ratio of KD value for NRAS to KD value for KRAS) [4, 7]: A (a compound having 10 or more and less than 20 is denoted as A)

- pIC50 [1]: 7.39
- pKd [3, 6]: 9.24
Compound: CCO[C@@H]1C[C@H]2C(=O)NC3(CCC3)C(=O)N(C)[C@@H](C(CC)CC)C(=O)N(C)[C@H](C(=O)N(C)C)CC(=O)N(C)[C@@H](CC3CCCC3)C(=O)N[C@@H]([C@@H](C)CC)C(=O)N(C)CC(=O)N(C)[C@H]3C/C=C\CCN(C3=O)[C@@H](CC3CCC(F)(F)CC3)C(=O)N(C)CC(=O)N[C@@H](CCc3cc(F)c(C(F)(F)F)c(F)c3)C(=O)N2C1 [PP1431]
- HRAS/KRAS (ratio of KD value for HRAS to KD value for KRAS) [2, 5]: A (a compound having 10 or more and less than 20 is denoted as A)
- NRAS/KRAS (ratio of KD value for NRAS to KD value for KRAS) [4, 7]: AA (a compound having 20 or more is denoted as AA)

- pIC50 [1]: 7.52
- pKd [3, 8]: 9.14
Compound: CCCN1C(=O)CN(C)C(=O)CN(C)C(=O)[C@H]([C@@H](C)CC)NC(=O)[C@H](CC(C)C)N(C)C(=O)C[C@@H](C(=O)N2CCOCC2)N(C)C(=O)[C@H](C2CCCC2)N(C)C(=O)[C@](C)(COC)NC(=O)[C@@H]2CCCN2C(=O)[C@H](CCc2cc(F)c(C(F)(F)F)c(F)c2)NC(=O)CN(C)C(=O)[C@@H]1Cc1ccc(C(F)(F)F)cc1 [PP0762] ([NMeL]I[Sar][Sar][NPrPhe(4-CF3)][Sar][hPhe(3,5-F2-4-CF3)]P[αMeS](Me)[NMeGly(cPent)][NMeD]-Morpholide; lactam N-11)
- HRAS/KRAS (ratio of KD value with respect to HRAS to KD value with respect to KRAS) [2, 9]: B (a compound having 3 or more and less than 10 is denoted as B)
- NRAS/KRAS (ratio of KD value with respect to NRAS to KD value with respect to KRAS) [4, 10]: B (a compound having 3 or more and less than 10 is denoted as B)

- pIC50 [1]: 6.94
- pKd ([3]; SPR, Single Cycle Kinetics): 9.60
Compound: CCO[C@H](C)[C@@H]1NC(=O)[C@H](CC(C)C)N(C)C(=O)C[C@@H](C(=O)N(C)CC)N(C)C(=O)[C@H](C2CCCC2)N(C)C(=O)C2(CC(C)(C)C2)NC(=O)[C@@H]2C[C@H](C)CN2C(=O)[C@H](CCc2ccc(C(F)(F)F)c(OC)c2)NC(=O)CN(C)C(=O)[C@H](Cc2ccc(C)cc2)N2CC/C=C\C[C@@H](C2=O)N(C)C(=O)CN(C)C1=O [PP2413]
- HRAS/KRAS (ratio of KD value for HRAS to KD value for KRAS) [2, 9]: A (a compound having 10 or more and less than 20 is denoted as A)
- NRAS/KRAS (ratio of KD value for NRAS to KD value for KRAS) [4, 10]: A (a compound having 10 or more and less than 20 is denoted as A)

- pIC50 [1]: 7.50
- pKd ([3]; SPR, Single Cycle Kinetics): 9.32
Compound: CC[C@H](C)[C@@H]1NC(=O)[C@H](CC(C)C)N(C)C(=O)C[C@@H](C(=O)N(C)C)N(C)C(=O)[C@H](C2CCCC2)N(C)C(=O)C2(CC(C)(C)C2)NC(=O)[C@@H]2C[C@H](C)CN2C(=O)[C@H](CCc2ccc(C(F)(F)F)c(OC)c2)NC(=O)CN(C)C(=O)[C@H](Cc2ccc(C)cc2)N2CC/C=C\C[C@@H](C2=O)N(C)C(=O)[C@@H]2CCCN2C1=O [PP2409]
- HRAS/KRAS (ratio of KD value for HRAS to KD value for KRAS) [2, 9]: B (a compound having 3 or more and less than 10 is denoted as B)
- NRAS/KRAS (ratio of KD value for NRAS to KD value for KRAS) [4, 10]: A (a compound having 10 or more and less than 20 is denoted as A)

The next lines start with the compound.

Compound: CCO[C@@H]1C[C@H]2C(=O)NC3(CCC3)C(=O)N(C)[C@@H](C(CC)CC)C(=O)N(C)[C@H](C(=O)N3CCCC3)CC(=O)N(C)[C@@H](COC)C(=O)N[C@@H]([C@@H](C)CC)C(=O)N(C)CC(=O)N(C)[C@H]3C/C=C\CCN(C3=O)[C@@H](CC3CCCCC3)C(=O)N(C)CC(=O)N[C@@H](CCc3cc(F)c(C(F)(F)F)c(F)c3)C(=O)N2C1 [PP1438]
- pIC50 [1]: 7.05
- HRAS/KRAS (ratio of KD value for HRAS to KD value for KRAS) [2, 5]: A (a compound having 10 or more and less than 20 is denoted as A)
- pKd [3, 6]: 9.26
- NRAS/KRAS (ratio of KD value for NRAS to KD value for KRAS) [4, 7]: AA (a compound having 20 or more is denoted as AA)

Compound: CCC[C@H]1C(=O)N[C@@H]([C@@H](C)CC)C(=O)N(C)CC(=O)N(C)[C@H]2C/C=C\CCN(C2=O)[C@@H](Cc2ccc(C(F)F)cc2)C(=O)N(C)CC(=O)N[C@@H](CCc2ccc(Cl)c(Cl)c2)C(=O)N2C[C@H](OC3CCC3)C[C@H]2C(=O)NC2(CC(C)(C)C2)C(=O)N(C)[C@@H](C(CC)CC)C(=O)N(C)[C@H](C(=O)N(C)C)CC(=O)N1C [PP2643]
- pIC50 [1]: 7.49
- HRAS/KRAS (ratio of KD value with respect to GDP-bound HRAS wild-type protein to KD value with respect to KRAS) ([2]; SPR KD ratio HRAS/KRAS, class symbols): A (a compound having 10 or more and less than 20 is denoted as A)
- pKd [3, 8]: 9.31
- NRAS/KRAS (ratio of KD value with respect to GDP-bound NRAS wild-type protein to KD value with respect to KRAS) ([4]; SPR KD ratio NRAS/KRAS, class symbols): AA (a compound having 20 or more is denoted as AA)

Compound: CC[C@H](C)[C@@H]1NC(=O)[C@H](COC)N(C)C(=O)C[C@@H](C(=O)N(C)CC)N(C)C(=O)[C@H](C2CCCC2)N(C)C(=O)C2(CC(C)(C)C2)NC(=O)[C@@H]2C[C@H](C)CN2C(=O)[C@H](CCc2ccc(C(F)(F)F)c(Cl)c2)NC(=O)CN(C)C(=O)[C@H](Cc2ccc(C)cc2)N2CC/C=C\C[C@@H](C2=O)N(C)C(=O)CN(C)C1=O [PP2506]
- pIC50 [1]: 7.97
- HRAS/KRAS (ratio of KD value for HRAS to KD value for KRAS) [2, 9]: A (a compound having 10 or more and less than 20 is denoted as A)
- pKd ([3]; SPR, Single Cycle Kinetics): 9.89
- NRAS/KRAS (ratio of KD value for NRAS to KD value for KRAS) [4, 10]: A (a compound having 10 or more and less than 20 is denoted as A)

Compound: CCO[C@H](C)[C@@H]1NC(=O)[C@H](CC(C)C)N(C)C(=O)C[C@@H](C(=O)N(C)CC)N(C)C(=O)[C@H](C2CCCC2)N(C)C(=O)C2(CC(C)(C)C2)NC(=O)[C@@H]2C[C@H](C)CN2C(=O)[C@H](CCc2ccc(C(F)(F)F)c(OC)c2)NC(=O)CN(C)C(=O)[C@H](Cc2ccc(C)cc2)N2CC/C=C\C[C@@H](C2=O)N(C)C(=O)[C@@H]2CCCN2C1=O [PP2419]
- pIC50 [1]: 6.90
- HRAS/KRAS (ratio of KD value for HRAS to KD value for KRAS) [2, 9]: A (a compound having 10 or more and less than 20 is denoted as A)
- pKd ([3]; SPR, Single Cycle Kinetics): 8.70
- NRAS/KRAS (ratio of KD value for NRAS to KD value for KRAS) [4, 10]: A (a compound having 10 or more and less than 20 is denoted as A)

Compound: CCCCCC[C@H]1C(=O)N[C@@H]([C@@H](C)CC)C(=O)N(C)CC(=O)N(C)[C@H]2C/C=C\CCN(C2=O)[C@@H](Cc2ccc(C(F)(F)F)cc2)C(=O)N(C)CC(=O)N[C@@H](CCc2ccc(Cl)c(Cl)c2)C(=O)N2C[C@H](OCC)C[C@H]2C(=O)NC2(CCC2)C(=O)N(C)[C@@H](C(CC)CC)C(=O)N(C)[C@H](C(=O)N(C)C)CC(=O)N1C [PP1218]
- pIC50 [1]: 7.17
- HRAS/KRAS (ratio of KD value for HRAS to KD value for KRAS) [2, 5]: A (a compound having 10 or more and less than 20 is denoted as A)
- pKd [3, 6]: 9.06
- NRAS/KRAS (ratio of KD value for NRAS to KD value for KRAS) [4, 7]: AA (a compound having 20 or more is denoted as AA)

Compound: CCO[C@@H]1C[C@H]2C(=O)NC3(CCC3)C(=O)N(C)[C@@H](C3CCCC3)C(=O)N(C)[C@H](C(=O)N(C)C)CC(=O)N(C)[C@@H](CC3CC3)C(=O)N[C@@H]([C@@H](C)CC)C(=O)N(C)CC(=O)N(C)[C@H]3C/C=C\CCN(C3=O)[C@@H](Cc3ccc(C(F)(F)F)cc3)C(=O)N(C)CC(=O)N[C@@H](CCc3ccc(C(F)(F)F)c(OC)c3)C(=O)N2C1 [PP1247, (2S,8S,12R,14S,20S,23S,27S,30S,36S,38Z)-20-cyclopentyl-27-(cyclopropylmethyl)-12-ethoxy-8-[2-[3-methoxy-4-(trifluoromethyl)phenyl]ethyl]-N,N,4,19,22,26,32,35-octamethyl-30-[(1S)-1-methylpropyl]-3,6,9,15,18,21,25,28,31,34,42-undecaoxo-2-[[4-(trifluoromethyl)phenyl]methyl]spiro[1,4,7,10,16,19,22,26,29,32,35-undecazatricyclo[34.5.1.0^10,14]dotetracont-38-ene-17,1′-cyclobutane]-23-carboxamide]
- pIC50 [1]: 8.19
- HRAS/KRAS (ratio of KD value for HRAS to KD value for KRAS) [2, 5]: A (a compound having 10 or more and less than 20 is denoted as A)
- pKd [3, 6]: 10.34
- NRAS/KRAS (ratio of KD value for NRAS to KD value for KRAS) [4, 7]: A (a compound having 10 or more and less than 20 is denoted as A)

Compound: CCO[C@@H]1C[C@H]2C(=O)NC3(CC(C)(C)C3)C(=O)N(C)[C@@H](C(CC)CC)C(=O)N(C)[C@H](C(=O)N(C)C)CC(=O)N(C)[C@@H](COC)C(=O)N[C@@H]([C@@H](C)CC)C(=O)N(C)CC(=O)N(C)[C@H]3C/C=C\CCN(C3=O)[C@@H](CC3CCC(F)(F)CC3)C(=O)N(C)CC(=O)N[C@@H](CCc3ccc(C(F)(F)F)c(Cl)c3)C(=O)N2C1 [PP2444]
- pIC50 [1]: 7.49
- HRAS/KRAS (ratio of KD value for HRAS to KD value for KRAS) [2, 9]: A (a compound having 10 or more and less than 20 is denoted as A)
- pKd ([3]; SPR, Single Cycle Kinetics): 9.23
- NRAS/KRAS (ratio of KD value for NRAS to KD value for KRAS) [4, 10]: A (a compound having 10 or more and less than 20 is denoted as A)
